Results taken from PMC10318822, “Phase 1 dose-escalation study to evaluate the safety, tolerability, pharmacokinetics, and anti-tumor activity of FCN-159 in adults with neurofibromatosis type 1-related unresectable plexiform neurofibromas” (BMC Medicine, 2023).

Test system: adult patients with NF1-related PN
Assay: Phase I dose-escalation: DLT, MTD, RP2D and drug-related TEAEs (CTCAE v5.0)
Procedure: This is a multicenter, open-label, single-arm, non-randomized, phase I dose-escalation trial to evaluate the safety, tolerability, pharmacokinetic (PK), and anti-tumor activity of orally administered FCN-159 in adult patients with NF1 (NCT04954001). Phase I commenced with dose escalation in adult patients following a standard 3 + 3 design (Supplementary Table S1) to determine the maximum tolerated dose (MTD) of FCN-159 administered daily under fasting conditions (defined as no food or drink 1 h before and 2 h after each dose) in 28-day cycles. Study drug was dispensed at the study site and patient adherence was monitored by the records of drug dispensation and return. Patients were on treatment until PD, death, patient's voluntary withdrawal from study treatment, or study termination. The study was followed for 2 years after the last patient in. The starting dose was 4 mg, escalating in cohorts of at least three evaluable patients at 6 mg, 8 mg, and 12 mg until the MTD was determined. The starting dose in this study was determined based on available data from a phase 1a, first-in-human study of FCN-159 in patients with advanced NRAS ^mut+ melanoma at the time of study design. […] Dose expansion at a likely RP2D level enrolled approximately six patients. The highest dose level with a dose-limiting toxicity (DLT) incidence rate ≤ 33% (0/3 or 1/6 patients) was to be considered the MTD. If patients experienced grade ≥ 3 and/or unacceptable toxic events that were considered as at least possibly related to the study treatment, the study treatment was discontinued and supportive treatment was given in accordance with local treatment routines. If the toxicity returned to grade ≤ 2 within 28 days after the occurrence, and there was no progression on patients’ conditions or the investigator believed that patients could benefit from the study treatment, the original dose could be maintained or reduced after discussion with medical monitor. After completion of the dose escalation part of the study, PK, efficacy, safety, and tolerability data were analyzed to select the RP2D.
Primary endpoints of the study were the DLT incidence rate, MTD, and RP2D. Secondary endpoints included other safety assessments, imaging tumor response (complete response [CR], PR, stable disease [SD], or progressive disease [PD]), and PK parameters of FCN-159. Adverse events were graded per CTCAE v5.0.
All patients underwent a complete medical history, physical examination, Eastern Cooperative Oncology Group (ECOG) assessment, and laboratory analysis of test results. Drug-related TEAEs, serious adverse events (SAEs), TEAEs of grade ≥ 3 toxicity, and TEAEs leading to drug discontinuation were reviewed on an ongoing basis. Efficacy was assessed by radiologic scans and clinical assessment. Tumor assessments per Response Evaluation in Neurofibromatosis Schwannomatosis criteria were performed by investigators using MRI volumetric analysis every 4 cycles within the first 2 years (± 7 days) and every 6 cycles after 2 years (± 14 days) until PD, death, patient's voluntary withdrawal from study treatment, or study termination. MRI sequences of […], T1- and T2-weighted sequences were chosen and the software of Extended Brilliance Workspace, SIGNA Premier and uExceed were used for MRI volumetric analysis. The same software was used for all tumor assessments at baseline and subsequent assessed timepoints of the same patient. Pain was assessed by an 11-point numerical rating scale (NRS-11).
The sample size for the dose-escalation study was estimated to be 24 based on the 3 + 3 method. Safety was analyzed in patients who received at least one dose of FCN-159 and had at least one safety assessment. DLT was assessed in the DLT analysis set, defined as patients who were enrolled in the dose-escalation study and met the DLT evaluation criteria.

## Cn1c(=O)c(F)c(Nc2ccc(I)cc2F)c2c(=O)n(C3CC3)nc(-c3cccc(NS(=O)(=O)C4CC4)c3)c21 [FCN-159]
4 mg
  DLT events: No DLT events were observed
4 mg (N = 3)
  Drug-related TEAE: Abdominal pain: 0 n (%)
  Drug-related TEAE: Acne: 0 n (%)
  Drug-related TEAE: Acne pustular: 0 n (%)
  Drug-related TEAE: Alanine aminotransferase increased: 0 n (%)
  Drug-related TEAE: Albumin globulin ratio decreased: 0 n (%)
  Drug-related TEAE: Alopecia: 0 n (%)
  Drug-related TEAE: Amylase increased: 0 n (%)
  Drug-related TEAE: Anemia: 0 n (%)
  Drug-related TEAE: Aortic dilatation: 0 n (%)
  Drug-related TEAE: Aspartate aminotransferase increased: 0 n (%)
  Drug-related TEAE: Asthenia: 0 n (%)
  Drug-related TEAE: Beta globulin decreased: 1 (33.3) n (%)
  Drug-related TEAE: Beta globulin increased: 1 (33.3) n (%)
  Drug-related TEAE: Blood alkaline phosphatase increased: 0 n (%)
  Drug-related TEAE: Blood bilirubin increased: 1 (33.3) n (%)
  Drug-related TEAE: Blood creatine phosphokinase increased: 1 (33.3) n (%)
  Drug-related TEAE: Blood fibrinogen increased: 0 n (%)
  Drug-related TEAE: Blood lactate dehydrogenase increased: 1 (33.3) n (%)
  Drug-related TEAE: Blood pressure increased: 0 n (%)
  Drug-related TEAE: Blood urea increased: 1 (33.3) n (%)
  Drug-related TEAE: Blood uric acid increased: 1 (33.3) n (%)
  Drug-related TEAE: Breath odor: 0 n (%)
  Drug-related TEAE: Capillary disorder: 1 (33.3) n (%)
  Drug-related TEAE: Constipation: 0 n (%)
  Drug-related TEAE: Decreased appetite: 0 n (%)
  Drug-related TEAE: Dermatitis acneiform: 0 n (%)
  Drug-related TEAE: Diarrhea: 0 n (%)
  Drug-related TEAE: Drug eruption: 1 (33.3) n (%)
  Drug-related TEAE: Dyslipidemia: 1 (33.3) n (%)
  Drug-related TEAE: Ejection fraction decreased: 0 n (%)
  Drug-related TEAE: Electrocardiogram QT prolonged: 0 n (%)
  Drug-related TEAE: Electrocardiogram abnormal: 0 n (%)
  Drug-related TEAE: Epistaxis: 1 (33.3) n (%)
  Drug-related TEAE: Folliculitis: 0 n (%)
  Drug-related TEAE: Functional gastrointestinal disorder: 0 n (%)
  Drug-related TEAE: Gamma-glutamyltransferase increased: 0 n (%)
  Drug-related TEAE: Gingival pain: 0 n (%)
  Drug-related TEAE: Hyperlipidemia: 0 n (%)
  Drug-related TEAE: Hypertension: 0 n (%)
  Drug-related TEAE: Hypoalbuminemia: 0 n (%)
  Drug-related TEAE: Hypocalcemia: 0 n (%)
  Drug-related TEAE: Hypophosphatemia: 0 n (%)
  Drug-related TEAE: Hypoproteinemia: 0 n (%)
  Drug-related TEAE: Immunoglobulins increased: 2 (66.7) n (%)
  Drug-related TEAE: Impetigo: 1 (33.3) n (%)
  Drug-related TEAE: Left atrial enlargement: 0 n (%)
  Drug-related TEAE: Lipoprotein abnormal: 1 (33.3) n (%)
  Drug-related TEAE: Malaise: 1 (33.3) n (%)
  Drug-related TEAE: Menstrual disorder: 0 n (%)
  Drug-related TEAE: Mitral valve incompetence: 0 n (%)
  Drug-related TEAE: Mouth ulceration: 0 n (%)
  Drug-related TEAE: Muscular weakness: 0 n (%)
  Drug-related TEAE: Oedema peripheral: 0 n (%)
  Drug-related TEAE: Pain in extremity: 1 (33.3) n (%)
  Drug-related TEAE: Paronychia: 1 (33.3) n (%)
  Drug-related TEAE: Prealbumin decreased: 0 n (%)
  Drug-related TEAE: Protein urine present: 1 (33.3) n (%)
  Drug-related TEAE: Pruritus: 0 n (%)
  Drug-related TEAE: QRS axis abnormal: 1 (33.3) n (%)
  Drug-related TEAE: Rash: 1 (33.3) n (%)
  Drug-related TEAE: Sinus arrhythmia: 1 (33.3) n (%)
  Drug-related TEAE: Sinus bradycardia: 1 (33.3) n (%)
  Drug-related TEAE: Sinusitis: 0 n (%)
  Drug-related TEAE: Skin exfoliation: 0 n (%)
  Drug-related TEAE: Specific gravity urine increased: 1 (33.3) n (%)
  Drug-related TEAE: Stomatitis: 2 (66.7) n (%)
  Drug-related TEAE: Supraventricular extrasystoles: 1 (33.3) n (%)
  Drug-related TEAE: Total bile acids increased: 1 (33.3) n (%)
  Drug-related TEAE: Tricuspid valve incompetence: 0 n (%)
  Drug-related TEAE: Urinary occult blood positive: 0 n (%)
  Drug-related TEAE: Urinary sediment present: 0 n (%)
  Drug-related TEAE: Urinary tract infection: 0 n (%)
  Drug-related TEAE: Urine ketone body present: 0 n (%)
  Drug-related TEAE: Urobilinogen urine increased: 2 (66.7) n (%)
  Drug-related TEAE: Urticaria: 0 n (%)
  Drug-related TEAE: Vision blurred: 0 n (%)
  Drug-related TEAE: Visual acuity reduced: 0 n (%)
  Drug-related TEAE: pH urine decreased: 0 n (%)
  Drug-related TEAE: pH urine increased: 1 (33.3) n (%)
  Subjects with any drug-related TEAE: 3 (100) n (%)
6 mg
  DLT events: No DLT events were observed
6 mg (N = 4)
  Drug-related TEAE: Abdominal pain: 0 n (%)
  Drug-related TEAE: Acne: 1 (25.0) n (%)
  Drug-related TEAE: Acne pustular: 0 n (%)
  Drug-related TEAE: Alanine aminotransferase increased: 1 (25.0) n (%)
  Drug-related TEAE: Albumin globulin ratio decreased: 0 n (%)
  Drug-related TEAE: Alopecia: 1 (25.0) n (%)
  Drug-related TEAE: Amylase increased: 0 n (%)
  Drug-related TEAE: Anemia: 0 n (%)
  Drug-related TEAE: Aortic dilatation: 0 n (%)
  Drug-related TEAE: Aspartate aminotransferase increased: 2 (50.0) n (%)
  Drug-related TEAE: Asthenia: 1 (25.0) n (%)
  Drug-related TEAE: Beta globulin decreased: 0 n (%)
  Drug-related TEAE: Beta globulin increased: 1 (25.0) n (%)
  Drug-related TEAE: Blood alkaline phosphatase increased: 1 (25.0) n (%)
  Drug-related TEAE: Blood bilirubin increased: 2 (50.0) n (%)
  Drug-related TEAE: Blood creatine phosphokinase increased: 0 n (%)
  Drug-related TEAE: Blood fibrinogen increased: 0 n (%)
  Drug-related TEAE: Blood lactate dehydrogenase increased: 1 (25.0) n (%)
  Drug-related TEAE: Blood pressure increased: 0 n (%)
  Drug-related TEAE: Blood urea increased: 2 (50.0) n (%)
  Drug-related TEAE: Blood uric acid increased: 1 (25.0) n (%)
  Drug-related TEAE: Breath odor: 2 (50.0) n (%)
  Drug-related TEAE: Capillary disorder: 0 n (%)
  Drug-related TEAE: Constipation: 0 n (%)
